Series [1] can be described thus: Hypotensive effect in anesthetized rats. Conditions: sc. Type of series: in vivo. How it is done:
The mono-methoxy 5 k PEG-PTH(1-34) prepared in Example 1(2) was also adjusted similarly to 36.5, 18.3 and 9.1 μg/mL (calculated as PTH(1-34)). The samples thus prepared were then stored on ice and restored to room temperature about 30 minutes before administration.
Female SD rats at 10 weeks of age (Charles River Japan, Inc.) were anesthetized by intraperitoneal administration of 50 mg/kg pentobarbital sodium (Abbott Laboratories). A catheter for blood pressure measurement and a catheter for anesthesia maintenance were inserted into the femoral artery and vein, respectively, of each rat. Anesthesia was maintained using a syringe pump (Terumo Corporation) to ensure continuous injection (at 22.5 mg/kg/hour) of pentobarbital sodium (powder form, Tokyo Kasei Kogyo Co., Ltd.) dissolved in physiological saline (Otsuka Pharmaceutical Co., Ltd.). On the other hand, each catheter for blood pressure measurement was filled with 100 U/mL heparin sodium (Novo Nordisk A/S) in physiological saline. To measure systemic blood pressure, a pressure transducer (Nihon Kohden Corporation) was connected to the catheter for blood pressure measurement and signals from the transducer were input to a blood pressure amplifier (Nihon Kohden Corporation). The resulting data were averaged for use as an indicator of systemic blood pressure. The output of systemic blood pressure was, in turn, input to a measuring unit for instantaneous heart rate (Nihon Kohden Corporation) to determine heart rate. These parameters were continuously recorded on a thermal pen recorder (Graphtec Corporation) at a speed of 5 mm/min. After surgery, an injection needle for administration of a test substance was inserted into the dorsal subcutaneous region of each rat. After each parameter had stabilized, test drugs were administered. […] This figure illustrates changes in blood pressure induced by administration of a negative control (buffer), 50 μg/kg hPTH (1-34) and 36.5 μg/kg 5 k PEG-PTH(1-34) in this order from the upper panel. In addition, the average value of blood pressure before PTH administration and the value at the maximum blood pressure drop after administration were measured for each case to determine the difference between these two values. […] The vertical axis represents the maximum blood pressure drop (mmHg) and the horizontal axis represents the amount of PTH administered.

Series [2] is described as follows: Pharmacokinetics and bioavailability in rats by subcutaneous route. The class given is in vivo.

Usually Cmax stands for the maximum level reached in the sampled fluid or tissue. By AUC is commonly meant concentration integrated over time. The term MRT denotes a mean duration of stay, worked out from the concentration-time curve. As a reminder, the Tmax is the time at which the peak concentration occurs.

On to `CC[C@H](C)[C@H](NC(=O)[C@H](CCC(=O)O)NC(=O)[C@H](CO)NC(=O)[C@@H](NC(=O)[C@@H](N)CO)C(C)C)C(=O)N[C@@H](CCC(N)=O)C(=O)N[C@@H](CC(C)C)C(=O)N[C@@H](CCSC)C(=O)N[C@@H](Cc1cnc[nH]1)C(=O)N[C@@H](CC(N)=O)C(=O)N[C@@H](CC(C)C)C(=O)NCC(=O)N[C@@H](CCCCN)C(=O)N[C@@H](Cc1cnc[nH]1)C(=O)N[C@@H](CC(C)C)C(=O)N[C@@H](CC(N)=O)C(=O)N[C@@H](CO)C(=O)N[C@@H](CCSC)C(=O)N[C@@H](CCC(=O)O)C(=O)N[C@@H](CCCN=C(N)N)C(=O)N[C@H](C(=O)N[C@@H](CCC(=O)O)C(=O)N[C@@H](Cc1c[nH]c2ccccc12)C(=O)N[C@@H](CC(C)C)C(=O)N[C@@H](CCCN=C(N)N)C(=O)N[C@@H](CCCCN)C(=O)N[C@@H](CCCCN)C(=O)N[C@@H](CC(C)C)C(=O)N[C@@H](CCC(N)=O)C(=O)N[C@@H](CC(=O)O)C(=O)N[C@H](C(=O)N[C@@H](Cc1cnc[nH]1)C(=O)N[C@@H](CC(N)=O)C(=O)N[C@@H](Cc1ccccc1)C(=O)O)C(C)C)C(C)C` [hPTH(1-34), reference compound], for which the “hypotensive effect after administration (in words)” value in series [1] (anesthetized female SD rats) is recorded as “strong hypotensive effect immediately after administration”. Further, the “hypotensive effect over doses, maximum blood pressure drop (in words)” value in series [1] (anesthetized rats, hPTH(1-34) 12.5-50 μg/kg, 5 k PEG-PTH(1-34) 9.1-36.5 μg/kg) is given as “dose-dependent hypotensive effect in the range of 12.5 μg/kg to 50 μg/kg”. In addition, the bioavailability in series [2] (male, SD, rat, plasma, sc, 80 μg/kg, subcutaneous route, read-out: BA) came out at 13.6%. This molecule came in with a Cmax in series [2] (rat, in vivo, sc, subcutaneous, 80 μg/mL at 1 mL/kg) of 5.55 ng/mL. The AUC in series [2] (rat, in vivo, sc, subcutaneous, 80 μg/mL at 1 mL/kg, read-out: AUC) came to 2.94 ng·h/mL. Further, the MRT in series [2] (rat, in vivo, sc, subcutaneous, 80 μg/mL at 1 mL/kg, read-out: MRT) was determined as 32.8 min. Besides, the Tmax in series [2] (rat, in vivo, sc, subcutaneous, 80 μg/mL at 1 mL/kg, read-out: Tmax) was determined as 11.6 min. Also, the half-life in series [2] (rat, in vivo, sc, subcutaneous, 80 μg/mL at 1 mL/kg, read-out: t ½ (converted)) was 20.9 min. The BA entry in series [2] (subcutaneous route) is listed as “about 13.6%”.

Values taken from US20050148763A1, “Peg-binding pth or peg-binding pth derivative” (Chugai Seiyaku Kabushiki Kaisha, priority 2002, published 2005).
